Molecules are shown by their SMILES. Structures can show the parent of a compound that is named as a salt.

Tested on in the first series: not given
Experiment: not given
Conditions: not given
By melting point is commonly meant the temperature of the solid-liquid transition. As to `O=C(O)/C=C/C(=O)O.c1ccc2cc(-c3nnc(N4CCN5CCC4CC5)o3)ccc2c1`, the melting point lay in the range of 194.6 to 195.7 °C.

Turning to `O=C(O)/C=C/C(=O)O.c1coc(-c2nnc(N3CCN4CCC3CC4)o2)c1`, the melting point worked out at 175 °C.

For the compound `COc1ccc(-c2nnc(N3CCN4CCC3CC4)o2)cc1.O=C(O)/C=C/C(=O)O`, the melting point is 190.1 to 191.2 °C.

As to `O=C(O)/C=C/C(=O)O.c1cc(-c2nnc(N3CCN4CCC3CC4)o2)ccn1`, the melting point lay within 165.9 to 166.8 °C.

For `O=C(O)/C=C/C(=O)O.c1cncc(-c2nnc(N3CCN4CCC3CC4)o2)c1`, the melting point is 176.8 to 177.5 °C.

In turn, `Clc1ccc(-c2nnc(N3CCN4CCC3CC4)o2)cc1.O=C(O)/C=C/C(=O)O` returned a melting point of 184.3 to 185.8 °C.

As to `COc1cccc(-c2nnc(N3CCN4CCC3CC4)o2)c1.O=C(O)/C=C/C(=O)O`, the melting point is 126 to 164 °C.

Compound `O=C(O)/C=C/C(=O)O.c1ccc(-c2ccc(-c3nnc(N4CCN5CCC4CC5)o3)cc2)cc1` yielded a melting point of 238 to 239 °C.

With `O=C(O)/C=C/C(=O)O.c1csc(-c2nnc(N3CCN4CCC3CC4)o2)c1` [Compound D5, 4-[5-(2-Thienyl)-1,3,4-oxadiazol-2-yl]-1,4-diazabicyclo[3.2.2]nonane fumaric acid salt], the melting point lay within 161.8 to 162.7 °C.

The target in another series is T1, α7-subtype of nicotinic receptors (Rattus norvegicus, UniProt Q05941).
T1 construct: Cerebral cortices from male Wistar rats (150–250 g) are homogenised; from tissue; host or cells: rat cerebral cortex membrane homogenate (male Wistar rats)
T1 sequence (Q05941 23-502): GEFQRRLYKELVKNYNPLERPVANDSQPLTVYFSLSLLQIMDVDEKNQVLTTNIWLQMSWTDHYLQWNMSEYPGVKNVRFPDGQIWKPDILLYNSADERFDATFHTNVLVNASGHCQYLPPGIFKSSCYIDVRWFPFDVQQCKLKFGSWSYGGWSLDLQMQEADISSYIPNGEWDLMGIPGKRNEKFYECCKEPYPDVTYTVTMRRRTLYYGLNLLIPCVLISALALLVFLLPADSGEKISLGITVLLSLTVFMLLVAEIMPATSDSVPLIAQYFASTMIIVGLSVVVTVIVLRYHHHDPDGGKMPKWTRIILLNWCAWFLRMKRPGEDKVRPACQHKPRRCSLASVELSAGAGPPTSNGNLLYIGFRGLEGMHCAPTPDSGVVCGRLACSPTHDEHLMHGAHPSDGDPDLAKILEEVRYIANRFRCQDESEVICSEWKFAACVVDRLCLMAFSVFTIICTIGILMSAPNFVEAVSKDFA
The experiment in a line: In vitro inhibition of 3H-α-bungarotoxine binding in rat brain. Particulars: cerebral cortices from male Wistar rats, homogenate; 3H-α-bungarotoxine 2 nM; 2 hours at 37° C.
The IC50 is the concentration needed to halve the response being measured. Higher therefore signals lower potency. `c1ccc(-c2nnc(N3CCN4CCC3CC4)s2)cc1` [Compound 1A, 4-(5-Phenyl-1,3,4-thiadiazol-2-yl)-1,4-diazabicyclo[3.2.2]nonane fumaric acid salt] showed an IC50 of 6.7 nM.

With `c1ccc(-c2nnc(N3CCN4CCC3CC4)o2)cc1` [Compound D1, 4-(5-Phenyl-1,3,4-oxadiazol-2-yl)-1,4-diazabicyclo[3.2.2]nonane fumaric acid salt], the IC50 is 5.8 nM.

Consider `O=C(O)/C=C/C(=O)O.c1csc(-c2nnc(N3CCN4CCC3CC4)o2)c1` [Compound D5, 4-[5-(2-Thienyl)-1,3,4-oxadiazol-2-yl]-1,4-diazabicyclo[3.2.2]nonane fumaric acid salt], for which the IC50 stood at 22 nM.
